The record followed here is US20020026053A1, “Novel 3-(substituted) -2- indolinones compounds and use thereof as inhibitors of protein kinase activity” (priority 1997, published 2002).

The structures appear in SMILES notation.

For this assay, the system named is FLK-1 receptor. Briefly: FLK-1 Assay (cellular/catalytic ELISA, VEGF-stimulated phosphotyrosine). It is filed as cell-based. The following applies: protocol P.110. More on the design: concentration or dose not given beside the values. An outline of the steps: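 Receptor phosphotyrosine ELISA: Flk-1-expressing NIH3T3 C7#3 cells, starved overnight in 0.1% FBS medium, received compound (1:200 final dilution, 0.5% DMSO) for 2 h at 37 °C, then VEGF. Anti-FLK-1-captured receptor was probed with anti-phosphotyrosine UB40 and peroxidase/ABTS read-out, relative to cells without compound.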
In general terms: ELISA stands for enzyme-linked immunosorbent assay.

Consider `Cc1c(Br)cc(Br)c2c1C(=Cc1cccc(F)c1)C(=O)N2` [10736/H07], for which the “Flk Kinase % Inhibition (P.110)” value was determined as 17.8%.
Take `Cc1c(Br)cc(Br)c2c1C(=Cc1ccccc1F)C(=O)N2` [10736/H08]: the “Flk Kinase % Inhibition (P.110)” value is 15.8%.
For the compound `CCc1ccc(C=C2C(=O)Nc3c(Br)cc(Br)c(C)c32)cc1` [10736/H09], the “Flk Kinase % Inhibition (P.110)” value is 13.2%.
Turning to `COc1cccc(C=C2C(=O)Nc3c(Br)cc(Br)c(C)c32)c1` [10736/H10], the “Flk Kinase % Inhibition (P.110)” value is on record as 2.1%.
For the compound `Cc1c(Br)cc(Br)c2c1C(=Cc1ccccc1Cl)C(=O)N2` [10736/H11], the “Flk Kinase % Inhibition (P.110)” value is 17.6%.
In the case of `CCOc1ccc(C=C2C(=O)Nc3c(Br)cc(Br)cc32)cc1` [10737/A02] it was −5.5%.
`Cc1ccc(C=C2C(=O)Nc3c(Br)cc(Br)cc32)c(C)c1` [10737/A03]: the “Flk Kinase % Inhibition (P.110)” value was −1.2%.
In the case of `O=C1Nc2c(Br)cc(Br)cc2C1=Cc1cc(F)ccc1F` [10737/A04] it was −0.4%; in that of `O=C1Nc2c(Br)cc(Br)cc2C1=Cc1cccc(F)c1F` [10737/A05], −2.0%.
For `COc1ccc(C=C2C(=O)Nc3c(Br)cc(Br)cc32)cc1F` [10737/A06], the “Flk Kinase % Inhibition (P.110)” value is recorded as −20.3%.
With `Cc1ccc(C)c(C=C2C(=O)Nc3c(Br)cc(Br)cc32)c1` [10737/A07], the “Flk Kinase % Inhibition (P.110)” value was found to be 3.4%.
In the case of `O=C1Nc2c(Br)cc(Br)cc2C1=Cc1ccc2ccccc2c1` [10737/A08] it was 4.9%.
`O=C1Nc2c(Br)cc(Br)cc2C1=Cc1ccc(Oc2ccccc2)cc1` [10737/A09]: the “Flk Kinase % Inhibition (P.110)” value was −10.1%.
In the case of `CC(C)(C)c1ccc(Oc2cccc(C=C3C(=O)Nc4c(Br)cc(Br)cc43)c2)cc1` [10737/A10], the “Flk Kinase % Inhibition (P.110)” value is given as 6.0%.
As for `O=C1Nc2c(Br)cc(Br)cc2C1=Cc1cccc(Oc2cccc(C(F)(F)F)c2)c1` [10737/A11], the “Flk Kinase % Inhibition (P.110)” value is reported as 6.2%.
On to `CCOc1ccc(C=C2C(=O)Nc3ccc(I)cc32)cc1` [10737/B02], for which the “Flk Kinase % Inhibition (P.110)” value was −3.0%.
In the case of `Cc1ccc(C=C2C(=O)Nc3ccc(I)cc32)c(C)c1` [10737/B03] it was 7.0%; in that of `O=C1Nc2ccc(I)cc2C1=Cc1cc(F)ccc1F` [10737/B04], −8.2%.
In the case of `O=C1Nc2ccc(I)cc2C1=Cc1cccc(F)c1F` [10737/B05], the “Flk Kinase % Inhibition (P.110)” value is on record as −4.6%.
To `COc1ccc(C=C2C(=O)Nc3ccc(I)cc32)cc1F` [10737/B06] belongs 3.6%.
For `Cc1ccc(C)c(C=C2C(=O)Nc3ccc(I)cc32)c1` [10737/B07], the “Flk Kinase % Inhibition (P.110)” value is given as 10.5%.
In the case of `O=C1Nc2ccc(I)cc2C1=Cc1ccc2ccccc2c1` [10737/B08] it was 12.2%.
With `O=C1Nc2ccc(I)cc2C1=Cc1ccc(Oc2ccccc2)cc1` [10737/B09], the “Flk Kinase % Inhibition (P.110)” value is on record as 17.5%.
As to `CC(C)(C)c1ccc(Oc2cccc(C=C3C(=O)Nc4ccc(I)cc43)c2)cc1` [10737/B10], the “Flk Kinase % Inhibition (P.110)” value stood at 17.1%.
Turning to `O=C1Nc2ccc(I)cc2C1=Cc1cccc(Oc2cccc(C(F)(F)F)c2)c1` [10737/B11], the “Flk Kinase % Inhibition (P.110)” value came out at 12.8%.
On to `CCOc1ccc(C=C2C(=O)Nc3ccc(Br)c(C)c32)cc1` [10737/C02], for which the “Flk Kinase % Inhibition (P.110)” value is reported as −2.9%.
As for `Cc1ccc(C=C2C(=O)Nc3ccc(Br)c(C)c32)c(C)c1` [10737/C03], the “Flk Kinase % Inhibition (P.110)” value is on record as 10.1%.
For the compound `Cc1c(Br)ccc2c1C(=Cc1cc(F)ccc1F)C(=O)N2` [10737/C04], the “Flk Kinase % Inhibition (P.110)” value is listed as −20.1%.
Consider `Cc1c(Br)ccc2c1C(=Cc1cccc(F)c1F)C(=O)N2` [10737/C05], for which the “Flk Kinase % Inhibition (P.110)” value is listed as −3.3%.
To `COc1ccc(C=C2C(=O)Nc3ccc(Br)c(C)c32)cc1F` [10737/C06] belongs 8.7%; to `Cc1ccc(C)c(C=C2C(=O)Nc3ccc(Br)c(C)c32)c1` [10737/C07], 1.6%.
To `Cc1c(Br)ccc2c1C(=Cc1ccc3ccccc3c1)C(=O)N2` [10737/C08] belongs 8.9%.
On to `Cc1c(Br)ccc2c1C(=Cc1ccc(Oc3ccccc3)cc1)C(=O)N2` [10737/C09], for which the “Flk Kinase % Inhibition (P.110)” value amounted to 8.4%.
As to `Cc1c(Br)ccc2c1C(=Cc1cccc(Oc3ccc(C(C)(C)C)cc3)c1)C(=O)N2` [10737/C10], the “Flk Kinase % Inhibition (P.110)” value is reported as 16.0%.
`Cc1c(Br)ccc2c1C(=Cc1cccc(Oc3cccc(C(F)(F)F)c3)c1)C(=O)N2` [10737/C11]: the “Flk Kinase % Inhibition (P.110)” value worked out at 13.3%.
To `CCOc1ccc(C=C2C(=O)Nc3ccc(S(=O)(=O)NC)cc32)cc1` [10737/D02] belongs 10.6%.
To `CNS(=O)(=O)c1ccc2c(c1)C(=Cc1ccc(C)cc1C)C(=O)N2` [10737/D03] belongs 12.1%; to `CNS(=O)(=O)c1ccc2c(c1)C(=Cc1cc(F)ccc1F)C(=O)N2` [10737/D04], 12.0%.
Consider `CNS(=O)(=O)c1ccc2c(c1)C(=Cc1cccc(F)c1F)C(=O)N2` [10737/D05], for which the “Flk Kinase % Inhibition (P.110)” value was determined as 8.9%.
With `CNS(=O)(=O)c1ccc2c(c1)C(=Cc1ccc(OC)c(F)c1)C(=O)N2` [10737/D06], the “Flk Kinase % Inhibition (P.110)” value was 13.0%.
As to `CNS(=O)(=O)c1ccc2c(c1)C(=Cc1cc(C)ccc1C)C(=O)N2` [10737/D07], the “Flk Kinase % Inhibition (P.110)” value is 12.9%.
Regarding `CNS(=O)(=O)c1ccc2c(c1)C(=Cc1ccc3ccccc3c1)C(=O)N2` [10737/D08], the “Flk Kinase % Inhibition (P.110)” value was 15.3%.
Take `CNS(=O)(=O)c1ccc2c(c1)C(=Cc1ccc(Oc3ccccc3)cc1)C(=O)N2` [10737/D09]: the “Flk Kinase % Inhibition (P.110)” value is recorded as 13.9%.
To `CNS(=O)(=O)c1ccc2c(c1)C(=Cc1cccc(Oc3ccc(C(C)(C)C)cc3)c1)C(=O)N2` [10737/D10] belongs 23.2%.
To `CNS(=O)(=O)c1ccc2c(c1)C(=Cc1cccc(Oc3cccc(C(F)(F)F)c3)c1)C(=O)N2` [10737/D11] belongs 17.2%.
To `CCOc1ccc(C=C2C(=O)Nc3ccc(S(=O)(=O)Nc4ccc(C(F)(F)F)cc4)cc32)cc1` [10737/E02] belongs 14.3%; to `Cc1ccc(C=C2C(=O)Nc3ccc(S(=O)(=O)Nc4ccc(C(F)(F)F)cc4)cc32)c(C)c1` [10737/E03], 17.9%.
As to `O=C1Nc2ccc(S(=O)(=O)Nc3ccc(C(F)(F)F)cc3)cc2C1=Cc1cc(F)ccc1F` [10737/E04], the “Flk Kinase % Inhibition (P.110)” value was 16.1%.
For the compound `O=C1Nc2ccc(S(=O)(=O)Nc3ccc(C(F)(F)F)cc3)cc2C1=Cc1cccc(F)c1F` [10737/E05], the “Flk Kinase % Inhibition (P.110)” value came out at 14.9%.
`COc1ccc(C=C2C(=O)Nc3ccc(S(=O)(=O)Nc4ccc(C(F)(F)F)cc4)cc32)cc1F` [10737/E06]: the “Flk Kinase % Inhibition (P.110)” value came out at 11.1%.
As to `Cc1ccc(C)c(C=C2C(=O)Nc3ccc(S(=O)(=O)Nc4ccc(C(F)(F)F)cc4)cc32)c1` [10737/E07], the “Flk Kinase % Inhibition (P.110)” value was 20.1%.
As for `O=C1Nc2ccc(S(=O)(=O)Nc3ccc(C(F)(F)F)cc3)cc2C1=Cc1ccc2ccccc2c1` [10737/E08], the “Flk Kinase % Inhibition (P.110)” value stood at 21.3%.
